{"source": "paper PMC3919717", "about": "(PLoS ONE, 2014)", "settings_in_all_cases": "50 nM enzyme; BAEE 0.04-0.2 mg/ml; 37°C; native glycosylated enzyme", "key": {"RV-FVPδ": {"tested_on": "RV-FVPδ"}, "RV-FVPβ": {"tested_on": "RV-FVPβ"}, "RV-FVPα": {"tested_on": "RV-FVPα", "format": "biochemical, Daboia russelii"}, "RV-FVPγ": {"tested_on": "RV-FVPγ"}}}
{"smiles": "CCOC(=O)[C@H](CCCNC(=N)N)NC(=O)c1ccccc1", "note": "[BAEE]", "values": [{"measurement": "Km", "setting": "RV-FVPδ", "value": 0.159, "unit": "mg/mL"}, {"measurement": "Km", "setting": "RV-FVPβ", "value": 0.156, "unit": "mg/mL"}, {"measurement": "Km", "setting": "RV-FVPα", "value": 0.143, "unit": "mg/mL"}, {"measurement": "Km", "setting": "RV-FVPγ", "value": 0.159, "unit": "mg/mL"}]}
